Test results published in ChEMBL document CHEMBL3352528, “Ejection of structural zinc leads to inhibition of γ-butyrobetaine hydroxylase” (Bioorg Med Chem Lett, 2014).
The source made the active and inactive calls. The calls are words filed in the database; no cut-off is given here.

How the values were obtained:
[1] = target: T1, Gamma-butyrobetaine dioxygenase (Homo sapiens, UniProt O75936); test: Inhibition of human BBOX pre-incubated for 1 min using TBS-protected fluorescein probe and Fe (II) (Fe(NH4)2(SO4)2 salt by fluoride release assay
T1 sequence (O75936 whole entry): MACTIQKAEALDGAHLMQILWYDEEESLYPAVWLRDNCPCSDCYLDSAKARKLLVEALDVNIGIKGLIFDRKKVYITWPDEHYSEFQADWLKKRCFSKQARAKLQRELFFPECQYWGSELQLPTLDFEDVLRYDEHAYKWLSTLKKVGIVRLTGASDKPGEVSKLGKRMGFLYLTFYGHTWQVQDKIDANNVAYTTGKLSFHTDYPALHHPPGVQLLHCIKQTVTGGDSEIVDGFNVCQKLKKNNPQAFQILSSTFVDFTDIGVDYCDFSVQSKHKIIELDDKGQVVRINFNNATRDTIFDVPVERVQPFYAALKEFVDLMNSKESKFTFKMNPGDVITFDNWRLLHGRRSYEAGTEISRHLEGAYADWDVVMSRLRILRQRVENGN

[2] = target: T1, Gamma-butyrobetaine dioxygenase; test: Inhibition of human BBOX pre-incubated for 10 mins using TBS-protected fluorescein probe and Fe (II) (Fe(NH4)2(SO4)2 salt by fluoride release assay
[3] = target: T1, Gamma-butyrobetaine dioxygenase; test: Inhibition of human BBOX pre-incubated for 15 mins using TBS-protected fluorescein probe and Fe (II) (Fe(NH4)2(SO4)2 salt by fluoride release assay
[4] = target: T1, Gamma-butyrobetaine dioxygenase; test: Inhibition of human BBOX pre-incubated for 20 mins using TBS-protected fluorescein probe and Fe (II) (Fe(NH4)2(SO4)2 salt by fluoride release assay
[5] = target: T1, Gamma-butyrobetaine dioxygenase; test: Inhibition of human BBOX pre-incubated for 25 mins using TBS-protected fluorescein probe and Fe (II) (Fe(NH4)2(SO4)2 salt by fluoride release assay
[6] = target: T2, Gamma-butyrobetaine dioxygenase (Homo sapiens) (UniProt O75936); test: Binding affinity to human BBOX assessed as quenching of intrinsic tryptophan fluorescence at 50 to 200 uM in absence of Fe(II)
T2 sequence (whole entry): T1 sequence (O75936 whole entry)

[7] = target: T1, Gamma-butyrobetaine dioxygenase; test: Binding affinity to human BBOX by tryptophan fluorescence quenching binding assay
[8] = target: T1, Gamma-butyrobetaine dioxygenase; test: Binding affinity to human BBOX in presence of Fe(II) by tryptophan fluorescence quenching binding assay
[9] = target: T2, Gamma-butyrobetaine dioxygenase (Homo sapiens); test: Induction of Zn(II) from human BBOX assessed as zinc release by fluorescence based assay

Compound | IC50 [1] | IC50 [2] | IC50 [3] | IC50 [4] | IC50 [5] | Activity [6] | Kd [7] | Kd [8] | Activity [9]
Br[Se]c1ccccc1 | 7.1 µM | 3.4 µM | 3.4 µM | 3 µM | 2.3 µM | Active | 13 µM | 11 µM | –
O=[Se](O)c1ccccc1 | 35 µM | 11 µM | 6.3 µM | 4.7 µM | 2.6 µM | Active | 7.6 µM | 12 µM | –
CN(C)C(=S)SSC(=S)N(C)C [THIRAM] | 56 µM | 34 µM | 14 µM | 7.9 µM | 5.8 µM | Active | 59 µM | 35 µM | –
O=C(O)CNC(=O)c1nc(Cl)c2ccccc2c1O | 36 µM | 33 µM | – | 32 µM | – | inactive | 122 µM | 13 µM | inactive
Cl[Se]c1ccccc1 | 5.1 µM | 4 µM | 3.2 µM | 2.9 µM | 2.2 µM | Active | 9.4 µM | 7.5 µM | –
O[Se]c1ccccc1 | 54 µM | 35 µM | 26 µM | 19 µM | 17 µM | Active | > 200 µM | > 200 µM | –
O=c1c2ccccc2[se]n1-c1ccccc1 [EBSELEN] | 0.69 µM | 0.71 µM | 0.76 µM | 0.83 µM | 0.72 µM | Active | 3.6 µM | 4.6 µM | –
c1ccc([Se][Se]c2ccccc2)cc1 | 55 µM | 47 µM | 49 µM | 42 µM | 39 µM | Active | > 200 µM | > 200 µM | –
